# Source: ChEMBL document CHEMBL1201862, “PubChem BioAssay data set” (2004)
#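 Five concentrations, 48 hours, 96-well plates. At the GI50, growth is halved.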 The source made the active and inactive calls. Rule as the data show it: active = GI50 up to about 1.1 µM and inactive = higher.
# What was measured:
# Test in all cases: NCI-60 cell line screen, 48 h
# HT-29 = system: HT-29
# DLD-1 = system: DLD-1
# HCT-15 = system: HCT-15
# NCI-H226 = system: NCI-H226
# IGROV-1 = system: IGROV-1
# KM12 = system: KM12
# CCRF-CEM = system: CCRF-CEM
# U-251 = system: U-251
# COLO 205 = system: COLO 205
# RXF 631 = system: RXF 631
# HCC 2998 = system: HCC 2998
# UACC-62 = system: UACC-62
# SF-295 = system: SF-295
# DMS-273 = system: DMS-273
# SK-OV-3 = system: SK-OV-3
# OVCAR-3 = system: OVCAR-3
# HCT-116 = system: HCT-116
# OVCAR-5 = system: OVCAR-5
# HOP-18 = system: HOP-18
# HL-60 = system: HL-60
# OVCAR-8 = system: OVCAR-8
# TK-10 = system: TK-10
# K562 = system: K562
# LOX IMVI = system: LOX IMVI
# DMS-114 = system: DMS-114
# Malme-3M = system: Malme-3M
# HOP-92 = system: HOP-92
# M19-MEL = system: M19-MEL
# MOLT-4 = system: MOLT-4
# SNB-19 = system: SNB-19
# XF498 = system: XF498
# NCI-H23 = system: NCI-H23
# CAKI-1 = system: CAKI-1
# KM-20L2 = system: KM-20L2
# HOP-62 = system: HOP-62
# SK-MEL-28 = system: SK-MEL-28
# NCI-H522 = system: NCI-H522
# SN12C = system: SN12C
# SF-539 = system: SF-539
# NCI-H460 = system: NCI-H460
# SF-268 = system: SF-268
# SW-620 = system: SW-620
# A498 = system: A498
# UACC-257 = system: UACC-257
# A549 = system: A549
# LXFL 529 = system: LXFL 529
# SNB-78 = system: SNB-78
# RPMI-8226 = system: RPMI-8226
# UO-31 = system: UO-31
# 786-0 = system: 786-0
# OVCAR-4 = system: OVCAR-4
# EKVX = system: EKVX
# ACHN = system: ACHN
# M14 = system: M14
# SK-MEL-2 = system: SK-MEL-2
smiles,measurement,setting,value
CCOC(=O)C12CCCC1(O)N(NC(=O)OC)C(C)=C2C(=O)OC (stereo not given),GI50,HT-29,> 100 µM (inactive)
same,GI50,DLD-1,> 100 µM (inactive)
same,GI50,HCT-15,> 100 µM
same,GI50,NCI-H226,> 100 µM (inactive)
same,GI50,IGROV-1,> 100 µM (inactive)
same,GI50,KM12,> 10 µM (inactive)
same,GI50,CCRF-CEM,> 100 µM (inactive)
same,GI50,U-251,> 100 µM (inactive)
same,GI50,COLO 205,> 100 µM (inactive)
same,GI50,RXF 631,> 100 µM (inactive)
same,GI50,HCC 2998,> 100 µM (inactive)
same,GI50,UACC-62,> 100 µM (inactive)
same,GI50,SF-295,> 10 µM (inactive)
same,GI50,DMS-273,> 100 µM (inactive)
same,GI50,SK-OV-3,> 100 µM (inactive)
same,GI50,OVCAR-3,> 10 µM (inactive)
same,GI50,HCT-116,> 100 µM (inactive)
same,GI50,OVCAR-5,> 100 µM (inactive)
same,GI50,HOP-18,> 100 µM (inactive)
same,GI50,HL-60,> 100 µM (inactive)
same,GI50,OVCAR-8,> 100 µM (inactive)
same,GI50,TK-10,> 100 µM (inactive)
same,GI50,K562,> 100 µM (inactive)
same,GI50,LOX IMVI,> 100 µM (inactive)
same,GI50,DMS-114,> 100 µM (inactive)
same,GI50,Malme-3M,> 100 µM (inactive)
same,GI50,HOP-92,> 100 µM (inactive)
same,GI50,M19-MEL,> 100 µM (inactive)
same,GI50,MOLT-4,> 100 µM (inactive)
same,GI50,SNB-19,> 100 µM (inactive)
same,GI50,XF498,> 100 µM (inactive)
same,GI50,NCI-H23,> 100 µM (inactive)
same,GI50,CAKI-1,> 100 µM (inactive)
same,GI50,KM-20L2,> 100 µM (inactive)
same,GI50,HOP-62,> 100 µM (inactive)
same,GI50,SK-MEL-28,> 100 µM (inactive)
same,GI50,NCI-H522,> 100 µM (inactive)
same,GI50,SN12C,> 100 µM (inactive)
same,GI50,SF-539,> 100 µM (inactive)
same,GI50,NCI-H460,> 100 µM (inactive)
same,GI50,SF-268,> 100 µM (inactive)
same,GI50,SW-620,> 100 µM (inactive)
same,GI50,A498,> 100 µM (inactive)
same,GI50,UACC-257,> 100 µM (inactive)
same,GI50,A549,> 100 µM (inactive)
same,GI50,LXFL 529,> 100 µM (inactive)
same,GI50,SNB-78,> 100 µM (inactive)
same,GI50,RPMI-8226,> 100 µM (inactive)
same,GI50,UO-31,> 100 µM (inactive)
same,GI50,786-0,20.4 µM (inactive)
same,GI50,OVCAR-4,> 100 µM (inactive)
same,GI50,EKVX,> 100 µM (inactive)
same,GI50,ACHN,> 100 µM (inactive)
same,GI50,M14,> 100 µM (inactive)
same,GI50,SK-MEL-2,14.1 µM (inactive)
